In patent US20080306070A1, “Combination Therapy Comprising Substituted Oxazolidinones for the Prevention and Treatment of Cerebral Circulatory Disorders” (BAYER HEALTHCARE AG, priority 2005, published 2008):

Legend:
[1] = test system: thrombus formation in an arteriovenous shunt; experiment: Arteriovenous shunt model (rat), antithrombotic effect; type: in vivo; details: oral administration, read-out: ED50 [mg/kg] p.o.
Method: Fasting male rats (strain: HSD CPB:WU) weighing 200-250 g were anesthetized with a Rompun/Ketavet solution (12 mg/kg/50 mg/kg). Thrombus formation was induced in an arteriovenous shunt by a method based on that described by Christopher N. Berry et al., Br. J. Pharmacol. (1994), 113, 1209-1214. For this purpose, the left jugular vein and the right carotid artery were exposed. An extracorporeal shunt was formed between the two vessels using a 10 cm-long polyethylene tube (PE 60). This polyethylene tube was secured in the middle by tying in a further 3 cm-long polyethylene tube (PE 160) which contained a roughened nylon thread forming a loop to produce a thrombogenic surface. The extracorporeal circulation was maintained for 15 minutes. The shunt was then removed and the nylon thread with the thrombus was immediately weighed. The blank weight of the nylon thread had been found before the start of the experiment. The test substances were administered either intravenously through the tail vein or orally by gavage to conscious animals before setting up the extracorporeal circulation.

| Structure (SMILES) | ED50 [1] [mg/kg] | melting point [°C] |
| --- | --- | --- |
| O=C(NC[C@H]1CN(c2ccc(N3CCOCC3=O)cc2)C(=O)O1)c1ccc(Cl)s1 [Example 44, 5-Chloro-N-({(5S)-2-oxo-3-[4-(3-oxo-4-morpholinyl)phenyl]-1,3-oxazolidin-5-yl}methyl)-2-thiophenecarboxamide] | 3 |  |
| O=C(NC[C@H]1CN(c2ccc(N3CCCOC3=O)cc2)C(=O)O1)c1ccc(Cl)s1 [Example 255] |  | 228 to 230 |
